Values of other authors as cited in patent publication US20100197666A1, “(THIO) -CARBAMOYL-CYCLOHEXANE DERIVATIVES AND METHOD FOR TREATING SCHIZOPHRENIA” (priority 2007, published 2010).

How the values were obtained:
Details in all cases: background statement; cited from earlier work
5-HT2C = 5-HT2C (Homo sapiens, UniProt P28335)
histamine H1 = histamine H1 (Homo sapiens, UniProt P35367)
[1] = test system: adrenergic receptor sites

5-HT2C, sequence (P28335 33-458, species assumed): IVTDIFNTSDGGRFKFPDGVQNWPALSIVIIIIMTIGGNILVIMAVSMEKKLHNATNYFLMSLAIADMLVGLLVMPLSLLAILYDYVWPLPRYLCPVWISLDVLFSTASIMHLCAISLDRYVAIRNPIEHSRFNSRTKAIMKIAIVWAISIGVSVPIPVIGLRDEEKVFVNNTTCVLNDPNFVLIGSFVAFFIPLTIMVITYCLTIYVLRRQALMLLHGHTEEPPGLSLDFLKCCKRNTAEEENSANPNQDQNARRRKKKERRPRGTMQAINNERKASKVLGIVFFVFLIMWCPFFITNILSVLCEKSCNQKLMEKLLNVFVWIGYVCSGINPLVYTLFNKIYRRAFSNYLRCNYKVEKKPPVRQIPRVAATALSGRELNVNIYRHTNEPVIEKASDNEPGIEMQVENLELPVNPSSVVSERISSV
histamine H1, sequence (P35367 whole entry): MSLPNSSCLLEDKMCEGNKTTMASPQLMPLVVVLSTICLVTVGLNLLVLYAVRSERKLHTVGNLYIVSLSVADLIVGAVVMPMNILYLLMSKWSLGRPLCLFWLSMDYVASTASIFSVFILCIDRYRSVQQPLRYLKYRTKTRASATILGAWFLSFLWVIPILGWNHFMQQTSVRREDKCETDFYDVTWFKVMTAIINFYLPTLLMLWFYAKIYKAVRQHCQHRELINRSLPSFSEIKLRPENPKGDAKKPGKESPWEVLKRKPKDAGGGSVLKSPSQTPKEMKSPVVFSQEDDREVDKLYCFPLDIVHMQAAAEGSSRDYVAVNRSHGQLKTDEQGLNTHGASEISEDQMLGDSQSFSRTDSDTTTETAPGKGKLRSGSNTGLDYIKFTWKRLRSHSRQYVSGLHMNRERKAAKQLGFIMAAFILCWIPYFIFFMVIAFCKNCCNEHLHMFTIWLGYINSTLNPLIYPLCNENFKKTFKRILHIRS

CN(C)C(=O)NC1CCC(CCN2CCN(c3cccc(Cl)c3Cl)CC2)CC1.Cl (stereo not drawn) [trans-4-{2-[4-(2,3-dichlorophenyl)-piperazin-1-yl]-ethyl}-N,N-dimethylcarbamoyl-cyclohexylamine hydrochloride]
low potency: potency at 5-HT2C receptor site (5-HT2C) | potency at histamine H1 receptor site (histamine H1) | potency at adrenergic receptor sites [1]
